pIC50: −log10 of the molar value.
The compounds below were run on PDE4 (assay: Evaluation of PDE4 inhibitory activity, scintillation proximity assay). Details: scintillation proximity assay; class symbols of Evaluation 1; read-out: PDE4 Inhibitory Activity (concentration for the inhibition rate of 50%, IC50), Evaluation 1.
Type: biochemical
How it was run: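 SPA with [2,8-3H]-cAMP and diluted PDE4 enzyme preparation in 50 mM Tris-HCl pH 7.4, 8.3 mM MgCl2, 1.7 mM EGTA, 3 mg/mL BSA, 120 min at room temperature. Product captured on ZnSO4-containing YSi-SPA beads, scintillation counted; IC50 from inhibition curves vs DMSO control and no-enzyme blank.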

Q: How did the pIC50 turn out when OCCOC(c1cc(-c2nccs2)c2oc(N3CC4CCC(C3)N4)nc2c1)C(F)(F)F (centres unmarked) [Example 149, 2-(1-(2-(3,8-Diazabicyclo[3.2.1]octan-3-yl)-7-(thiazol-2-yl)benzo[d]oxazol-5-yl)-2,2,2-trifluoroethoxy)ethan-1-ol] was run?
A: > 7.00

Q: O=C(c1ccc(-c2nccs2)c2oc(N3CC4CCC(C3)N4)nc12)N1CCOCC1 [Example 116, (2-(3,8-Diazabicyclo[3.2.1]octan-3-yl)-7-(thiazol-2-yl)benzo[d]oxazol-4-yl) (morpholino)methanone] was tested. Which pIC50 did it give?
A: > 7.00

Q: Cc1ccc(-c2nccs2)c2oc(N3CC4CC(C3)N4)nc12 [Example 26, 2-(3,6-Diazabicyclo[3.1.1]heptan-3-yl)-4-methyl-7-(thiazol-2-yl)benzo[d]oxazole] was tested. Which pIC50 did it give?
A: > 7.00

Q: CCOC(=O)c1cc(-c2nccs2)c2oc(N3CC4CCCC(C3)N4)nc2c1 [Example 89, Ethyl 2-(3,9-diazabicyclo[3.3.1]nonan-3-yl)-7-(thiazol-2-yl)benzo[d]oxazole-5-carboxylate] was tested. Which pIC50 did it give?
A: > 7.00

Q: CC(C)c1cc(-c2nccs2)c2oc(N3CC4CCCC(C3)N4)nc2c1 [Example 24, 2-(3,9-Diazabicyclo[3.3.1]nonan-3-yl)-5-isopropyl-7-(thiazol-2-yl)benzo[d]oxazole] was tested. Which pIC50 did it give?
A: > 7.00

Q: OC(c1cc(-c2nccs2)c2oc(N3CC4CCC(C3)N4)nc2c1)C(F)(F)F (racemic) [Example 137, 1-(2-(3,8-Diazabicyclo[3.2.1]octan-3-yl)-7-(thiazol-2-yl)benzo[d]oxazol-5-yl)-2,2,2-trifluoroethan-1-ol] was tested. Which pIC50 did it give?
A: > 7.00

Q: With Oc1cc(-c2nccs2)c2oc(N3CC4CCCC(C3)N4)nc2c1 [Example 65, 2-(3,9-Diazabicyclo[3.3.1]nonan-3-yl)-7-(thiazol-2-yl)benzo[d]oxazol-5-ol] as the compound, how does the pIC50 read?
A: > 7.00

Q: With COC(C)(C)c1cc(-c2nccs2)c2oc(N3CC4CCC(C3)N4)nc2c1C(F)(F)F [Example 171, 2-(3,8-Diazabicyclo[3.2.1]octan-3-yl)-5-(2-methoxypropan-2-yl)-7-(thiazol-2-yl)-4-(trifluoromethyl)benzo[d]oxazole] as the compound, how does the pIC50 read?
A: > 7.00

Q: How did the pIC50 turn out when CCOC(c1cc(-c2nccs2)c2oc(N3CC4CCC(C3)N4)nc2c1)C(F)(F)F (centres unmarked) [Example 148, 2-(3,8-Diazabicyclo[3.2.1]octan-3-yl)-5-(1-ethoxy-2,2,2-trifluoroethyl)-7-(thiazol-2-yl)benzo[d]oxazole] was run?
A: > 7.00

Q: Clc1ccc(-c2nccs2)c2oc(N3CC4CCCC(C3)N4)nc12 [Example 38, 2-(3,9-Diazabicyclo[3.3.1]nonan-3-yl)-4-chloro-7-(thiazol-2-yl)benzo[d]oxazole] was tested. Which pIC50 did it give?
A: > 7.00

Q: How did the pIC50 turn out when COC(c1cc(-c2nccs2)c2oc(N3CC4CC(C3)N4)nc2c1)C(F)(F)F (centres unmarked) [Example 144, 2-(3,6-Diazabicyclo[3.1.1]heptan-3-yl)-7-(thiazol-2-yl)-5-(2,2,2-trifluoro-1-methoxyethyl)benzo[d]oxazole] was run?
A: > 7.00

Q: How did the pIC50 turn out when FC(F)(F)c1c(Cl)cc(-c2ccccn2)c2oc(N3CC4COCC(C3)N4)nc12 [Example 14, 7-(5-Chloro-7-(pyridin-2-yl)-4-(trifluoromethyl)benzo[d]oxazol-2-yl)-3-oxa-7,9-diazabicyclo[3.3.1]nonane] was run?
A: 6.00 to 7.00

Q: COC(c1ccc(-c2nccs2)c2oc(N3CC4CC(C3)N4)nc12)C(F)F (centres unmarked) [Example 130, 2-(3,6-Diazabicyclo[3.1.1]heptan-3-yl)-4-(2,2-difluoro-1-methoxyethyl)-7-(thiazol-2-yl)benzo[d]oxazole] was tested. Which pIC50 did it give?
A: > 7.00

Q: With CC(=O)c1cc(-c2nccs2)c2oc(N3CC4CCC(C3)N4)nc2c1 [Example 108, 1-(2-(3,8-Diazabicyclo[3.2.1]octan-3-yl)-7-(thiazol-2-yl)benzo[d]oxazol-5-yl)ethan-1-one] as the compound, how does the pIC50 read?
A: > 7.00

Q: FC(F)(F)c1c(Cl)cc(-c2nccs2)c2oc(N3CC4CCC(C3)N4)nc12 [Example 20, 2-(3,8-Diazabicyclo[3.2.1]octan-3-yl)-5-chloro-7-(thiazol-2-yl)-4-(trifluoromethyl)benzo[d]oxazole] was tested. Which pIC50 did it give?
A: > 7.00

Q: How did the pIC50 turn out when CC(=O)c1cc(-c2nccs2)c2oc(N3CC4CC(C3)N4)nc2c1 [Example 109, 1-(2-(3,6-Diazabicyclo[3.1.1]heptan-3-yl)-7-(thiazol-2-yl)benzo[d]oxazol-5-yl)ethan-1-one] was run?
A: > 7.00

Q: With O=C(c1cc(-c2nccs2)c2oc(N3CC4CCC(C3)N4)nc2c1)N1CCCCC1 [Example 96, (2-(3,8-Diazabicyclo[3.2.1]octan-3-yl)-7-(thiazol-2-yl)benzo[d]oxazol-5-yl)(piperidin-1-yl)methanone] as the compound, how does the pIC50 read?
A: > 7.00

Same assay, conditions: scintillation proximity assay; read-out: PDE4 Inhibitory Activity (Evaluation 1; concentration for the inhibition rate of 50%)

Q: OC(c1ccc(-c2nccs2)c2oc(N3CC4CCC(C3)N4O)nc12)C(F)(F)F (centres unmarked) [Example 378, 3-(7-(Thiazol-2-yl)-4-(2,2,2-trifluoro-1-hydroxyethyl)benzo[d]oxazol-2-yl)-3,8-diazabicyclo[3.2.1]octan-8-ol] was tested. Which pIC50 did it give?
A: 6.00 to 7.00

Q: CC(C)(O)C(F)(F)Oc1ccc(-c2nccs2)c2oc(N3CC4CC(C3)N4O)nc12 [Example 371, 3-(4-(1,1-Difluoro-2-hydroxy-2-methylpropoxy)-7-(thiazol-2-yl)benzo[d]oxazol-2-yl)-3,6-diazabicyclo[3.1.1]heptan-6-ol] was tested. Which pIC50 did it give?
A: > 7.00

Q: With CC(C)(CO)Oc1ccc(-c2nccs2)c2oc(N3CC4CC(C3)N4)nc12 [Example 268, 2-((2-(3,6-Diazabicyclo[3.1.1]heptan-3-yl)-7-(thiazol-2-yl)benzo[d]oxazol-4-yl)oxy)-2-methylpropan-1-ol] as the compound, how does the pIC50 read?
A: > 7.00

Q: How did the pIC50 turn out when OC(c1cc(-c2cscn2)c2oc(N3CC4CCC(C3)N4)nc2c1OC(F)(F)F)C(F)F (centres unmarked) [Example 302, 1-(2-(3,8-Diazabicyclo[3.2.1]octan-3-yl)-7-(thiazol-4-yl)-4-(trifluoromethoxy)benzo[d]oxazol-5-yl)-2,2-difluoroethan-1-ol] was run?
A: > 7.00

Q: How did the pIC50 turn out when CC(O)COC(c1ccc(-c2nccs2)c2oc(N3CC4CC(C3)N4)nc12)C(F)(F)F (centres unmarked) [Example 261, 1-(1-(2-(3,6-Diazabicyclo[3.1.1]heptan-3-yl)-7-(thiazol-2-yl)benzo[d]oxazol-4-yl)-2,2,2-trifluoroethoxy)propan-2-ol] was run?
A: > 7.00

Q: How did the pIC50 turn out when FC(F)(F)COC(c1ccc(-c2nccs2)c2oc(N3CC4CCC(C3)N4)nc12)C(F)(F)F (centres unmarked) [Example 221, 2-(3,8-Diazabicyclo[3.2.1]octan-3-yl)-7-(thiazol-2-yl)-4-(2,2,2-trifluoro-1-(2,2,2-trifluoroethoxy)ethyl)benzo[d]oxazole] was run?
A: > 7.00

Q: How did the pIC50 turn out when OC(c1cc(-c2nccs2)c2oc(N3CC4CCC(C3)N4)nc2c1C(F)(F)F)C(F)F (centres unmarked) [Example 183, 1-(2-(3,8-Diazabicyclo[3.2.1]octan-3-yl)-7-(thiazol-2-yl)-4-(trifluoromethyl)benzo[d]oxazol-5-yl)-2,2-difluoroethan-1-ol] was run?
A: > 7.00

Q: How did the pIC50 turn out when CC(C)(O)c1ccc(-c2nccs2)c2oc(N3CC4CCC(C3)N4)nc12 [Example 247, 2-(2-(3,8-Diazabicyclo[3.2.1]octan-3-yl)-7-(thiazol-2-yl)benzo[d]oxazol-4-yl)propan-2-ol] was run?
A: > 7.00

Q: How did the pIC50 turn out when COC(C)c1ccc(-c2nccs2)c2oc(N3CC4CCC(C3)N4)nc12 (centres unmarked) [Example 242, 2-(3,8-Diazabicyclo[3.2.1]octan-3-yl)-4-(1-methoxyethyl)-7-(thiazol-2-yl)benzo[d]oxazole] was run?
A: > 7.00

Q: How did the pIC50 turn out when c1csc(-c2ccc(OC3CCCOC3)c3nc(N4CC5CCC(C4)N5)oc23)n1 (centres unmarked) [Example 262, 2-(3,8-Diazabicyclo[3.2.1]octan-3-yl)-4-((tetrahydro-2H-pyran-3-yl)oxy)-7-(thiazol-2-yl)benzo[d]oxazole] was run?
A: > 7.00

Q: How did the pIC50 turn out when C[C@H](O)COc1ccc(-c2nccs2)c2oc(N3CC4CC(C3)N4)nc12 [Example 260, (2S)-1-((2-(3,6-diazabicyclo[3.1.1]heptan-3-yl)-7-(thiazol-2-yl)benzo[d]oxazol-4-yl)oxy)propan-2-ol] was run?
A: > 7.00

Q: How did the pIC50 turn out when OC(COc1ccc(-c2nccs2)c2oc(N3CC4CC(C3)N4)nc12)C(F)(F)F (centres unmarked) [Example 277, 3-((2-(3,6-Diazabicyclo[3.1.1]heptan-3-yl)-7-(thiazol-2-yl)benzo[d]oxazol-4-yl)oxy)-1,1,1-trifluoropropan-2-ol] was run?
A: > 7.00

Q: With CSc1ccc(-c2nccs2)c2oc(N3CC4CC(C3)N4)nc12 [Example 345, 2-(3,6-Diazabicyclo[3.1.1]heptan-3-yl)-4-(methylthio)-7-(thiazol-2-yl)benzo[d]oxazole] as the compound, how does the pIC50 read?
A: > 7.00

Q: With OC(c1cc(-c2nccs2)c2oc(N3CC4CC(C3)N4)nc2c1OC(F)(F)F)C(F)F (centres unmarked) [Example 207, 1-(2-(3,6-Diazabicyclo[3.1.1]heptan-3-yl)-7-(thiazol-2-yl)-4-(trifluoromethoxy)benzo[d]oxazol-5-yl)-2,2-difluoroethan-1-ol] as the compound, how does the pIC50 read?
A: > 7.00

Q: O=C(O)c1cc(-c2nccs2)c2oc(N3CC4CCCC(C3)N4)nc2c1OC(F)(F)F [Example 191, 2-(3,9-Diazabicyclo[3.3.1]nonan-3-yl)-7-(thiazol-2-yl)-4-(trifluoromethoxy)benzo[d]oxazole-5-carboxylic acid] was tested. Which pIC50 did it give?
A: 6.00 to 7.00

Q: How did the pIC50 turn out when CC(O)c1cc(-c2nccs2)c2oc(N3CC4CC(C3)N4)nc2c1OC(F)(F)F (centres unmarked) [Example 273, 1-(2-(3,6-Diazabicyclo[3.1.1]heptan-3-yl)-7-(thiazol-2-yl)-4-(trifluoromethoxy)benzo[d]oxazol-5-yl)ethan-1-ol] was run?
A: > 7.00

Q: ON1C2CC1CN(c1nc3c(OC(F)(F)F)ccc(-c4nccs4)c3o1)C2 [Example 380, 3-(7-(Thiazol-2-yl)-4-(trifluoromethoxy)benzo[d]oxazol-2-yl)-3,6-diazabicyclo[3.1.1]heptan-6-ol] was tested. Which pIC50 did it give?
A: > 7.00

Q: CC(C)(O)C(Oc1ccc(-c2nccs2)c2oc(N3CC4CC(C3)N4)nc12)C(F)(F)F (centres unmarked) [Example 313, 3-((2-(3,6-Diazabicyclo[3.1.1]heptan-3-yl)-7-(thiazol-2-yl)benzo[d]oxazol-4-yl)oxy)-4,4,4-trifluoro-2-methylbutan-2-ol] was tested. Which pIC50 did it give?
A: > 7.00
